These are literature values, as cited in patent US20030180704A1, “Ice-controlling molecules and uses thereof” (priority 2002, published 2003).

One series concerns Crithidia fasciculata. As to conditions: cryopreservation at -20 C, different media.
For `OC1CCCC(O)C1` (stereo not shown) [1,3-cyclohexanediol], the “toxicity to Crithidia fasciculata” value was “toxic”.

The series is the same for the next values; noted with them: stored at -20 C, different media.
For the molecule `OCCC(O)CO` (stereo not shown) [1,2,4-butantriol], the “ability to cryopreserve Crithidia fasciculata without toxicity” value is reported as “potential outstanding cryoprotectants”.

For `OC1CCC(O)CC1` (stereo not shown) [1,4-cyclohexanediol], the “ability to cryopreserve Crithidia fasciculata without toxicity” value is listed as “potential outstanding cryoprotectants”.

Consider `CC(=O)NCCO` [N-acetylethanolamine], for which the “ability to cryopreserve Crithidia fasciculata without toxicity” value is given as “potential outstanding cryoprotectants”.

Take `C[S+](C)[O-]` [dimethylsulfoxide]: the “ability to cryopreserve Crithidia fasciculata without toxicity” value is recorded as “potential outstanding cryoprotectants”.

As for `OCC(O)CO` [glycerol], the “ability to cryopreserve Crithidia fasciculata without toxicity” value is “best cryoprotectant”.

Regarding `CC(O)CO` (stereo not shown) [propylene glycol], the “ability to cryopreserve Crithidia fasciculata without toxicity” value is “potential outstanding cryoprotectants”.
